# From patent US20260256792A1, “TREATMENT OF CHRONIC SPONTANEOUS URTICARIA BY ADMINISTERING (R)-2-[3-[4-AMINO-3-(2-FLUORO-4-PHENOXY-PHENYL)PYRAZOLO[3,4-D]PYRIMIDIN-1-YL]PIPERIDINE-1-CARBONYL]-4-METHYL-4-[4-(OXETAN-3-YL)PIPERAZIN-1-YL]PENT-2-ENENITRILE” (priority 2023, published 2026)
# Tested on: moderate-to-severe chronic spontaneous urticaria (CSU)
# Assay: Phase 2 CSU study: itch severity score over 7 days (ISS7)
# Type: in vivo, human
# Settings: 400 mg BID; for Change from Baseline in ISS7 at Week 12, LS Mean / Change from Baseline in ISS7 at Week 12, LS Mean Diff vs. placebo / Change from Baseline in ISS7 at Week 12, Mean: Omalizumab-naïve population
# Text: The study comprises a 12 week, randomized, double-blind, placebo-controlled, multi-center, dose-ranging efficacy and safety phase, followed by a 40 week open label extension (OLE) phase (see FIG. 1). The study consists of three phases and an optional OLE phase. […] Clinically, CSU is characterized by the spontaneous and recurrent appearance of pruritic hives. The proposed primary endpoints were the UAS7 at Week 12 in EU and EU reference countries and the ISS7 in the US. Regardless of where a participant was from, all assessments were the same. The UAS7 score is a composite score containing both the HSS7 and the ISS7. This allowed a global assessment of the two key components of urticaria: hives and itch. […] The UAS is a validated PRO measure. […] The daily UAS scores range from 0 to 6 point/day. […] Patients were to complete the UAS using the e-diary. […] The following secondary endpoints were to be analyzed using the same approach as for the primary endpoint: • Change from baseline in UAS7 at Week 4 • Change from baseline in UAS7 at Week 12 (for US and US reference countries) • Change from baseline in ISS7 at Week 12 (except US and US reference countries) • Change from baseline in HSS7 at Week 12
# [1] = Baseline Eosinophils (10^9/L) <0.150
# [2] = Baseline Eosinophils (10^9/L) <0.165 (Median)
# [3] = Baseline Eosinophils (10^9/L) <0.3
# [4] = Baseline Eosinophils (10^9/L) ≥0.150
# [5] = Baseline Eosinophils (10^9/L) ≥0.165 (Median)
# [6] = Baseline Eosinophils (10^9/L) ≥0.3
# [7] = Baseline H1-antihistamines dose 1-fold
# [8] = Baseline H1-antihistamines dose 2 to 4-fold standard dose
# [9] = Baseline Total IgE (IU/mL) <100
# [10] = Baseline Total IgE (IU/mL) <300
# [11] = Baseline Total IgE (IU/mL) ≥100
# [12] = Baseline Total IgE (IU/mL) ≥300
# [13] = Duration of disease (years) 2-10
# [14] = Duration of disease (years) >10
structure (smiles),measurement,setting,value
"CC(C)(C=C(C#N)C(=O)N1CCC[C@@H](n2nc(-c3ccc(Oc4ccccc4)cc3F)c3c(N)ncnc32)C1)N1CCN(C2COC2)CC1 [rilzabrutinib, (R)-2-[3-[4-amino-3-(2-fluoro-4-phenoxy-phenyl)pyrazolo[3,4-d]pyrimidin-1-yl]piperidine-1-carbonyl]-4-methyl-4-[4-(oxetan-3-yl)piperazin-1-yl]pent-2-enenitrile]","Change from Baseline in ISS7 at Week 12, LS Mean",Age group (years) <44 (Median),−7.05
same,"Change from Baseline in ISS7 at Week 12, LS Mean Diff vs. placebo",Age group (years) <44 (Median),−2.58
same,"Change from Baseline in ISS7 at Week 12, Mean",Age group (years) <44 (Median),−5.97
same,"Change from Baseline in ISS7 at Week 12, LS Mean",Age group (years) <65,−7.37
same,"Change from Baseline in ISS7 at Week 12, LS Mean Diff vs. placebo",Age group (years) <65,−1.71
same,"Change from Baseline in ISS7 at Week 12, Mean",Age group (years) <65,−7.17
same,"Change from Baseline in ISS7 at Week 12, LS Mean",Age group (years) ≥44 (Median),−8.10
same,"Change from Baseline in ISS7 at Week 12, LS Mean Diff vs. placebo",Age group (years) ≥44 (Median),−1.50
same,"Change from Baseline in ISS7 at Week 12, Mean",Age group (years) ≥44 (Median),−8.62
same,"Change from Baseline in ISS7 at Week 12, Mean",Age group (years) ≥65,−13.00
same,"Change from Baseline in ISS7 at Week 12, LS Mean",Baseline BHRA BHRA+,−8.42
same,"Change from Baseline in ISS7 at Week 12, LS Mean Diff vs. placebo",Baseline BHRA BHRA+,−3.03
same,"Change from Baseline in ISS7 at Week 12, Mean",Baseline BHRA BHRA+,−9.57
same,"Change from Baseline in ISS7 at Week 12, LS Mean",Baseline BHRA BHRA−,−6.59
same,"Change from Baseline in ISS7 at Week 12, Mean",Baseline BHRA BHRA−,−6.75
same,"Change from Baseline in ISS7 at Week 12, LS Mean Diff vs. placebo",Baseline BMI (kg/m^2) ≥30,−0.57
same,"Change from Baseline in ISS7 at Week 12, LS Mean",[1],−6.93
same,"Change from Baseline in ISS7 at Week 12, LS Mean Diff vs. placebo",[1],−0.15
same,"Change from Baseline in ISS7 at Week 12, LS Mean",[2],−7.37
same,"Change from Baseline in ISS7 at Week 12, LS Mean Diff vs. placebo",[2],−0.86
same,"Change from Baseline in ISS7 at Week 12, Mean",[2],−5.92
same,"Change from Baseline in ISS7 at Week 12, LS Mean",[3],−7.78
same,"Change from Baseline in ISS7 at Week 12, LS Mean Diff vs. placebo",[3],−2.31
same,"Change from Baseline in ISS7 at Week 12, Mean",[3],−7.62
same,"Change from Baseline in ISS7 at Week 12, LS Mean",[4],−7.91
same,"Change from Baseline in ISS7 at Week 12, LS Mean Diff vs. placebo",[4],−3.92
same,"Change from Baseline in ISS7 at Week 12, LS Mean",[5],−7.62
same,"Change from Baseline in ISS7 at Week 12, LS Mean Diff vs. placebo",[5],−3.53
same,"Change from Baseline in ISS7 at Week 12, Mean",[5],−8.88
same,"Change from Baseline in ISS7 at Week 12, LS Mean",[6],−6.15
same,"Change from Baseline in ISS7 at Week 12, LS Mean Diff vs. placebo",[6],−1.29
same,"Change from Baseline in ISS7 at Week 12, LS Mean",[7],−8.44
same,"Change from Baseline in ISS7 at Week 12, LS Mean Diff vs. placebo",[7],−1.60
same,"Change from Baseline in ISS7 at Week 12, Mean",[7],−9.03
same,"Change from Baseline in ISS7 at Week 12, LS Mean",[8],−6.73
same,"Change from Baseline in ISS7 at Week 12, LS Mean Diff vs. placebo",[8],−3.25
same,"Change from Baseline in ISS7 at Week 12, Mean",[8],−6.20
same,"Change from Baseline in ISS7 at Week 12, LS Mean",Baseline ISS7 score <13,−5.14
same,"Change from Baseline in ISS7 at Week 12, LS Mean Diff vs. placebo",Baseline ISS7 score <13,−2.42
same,"Change from Baseline in ISS7 at Week 12, Mean",Baseline ISS7 score <13,−5.28
same,"Change from Baseline in ISS7 at Week 12, LS Mean",Baseline ISS7 score ≥13,−7.87
same,"Change from Baseline in ISS7 at Week 12, LS Mean Diff vs. placebo",Baseline ISS7 score ≥13,−2.14
same,"Change from Baseline in ISS7 at Week 12, Mean",Baseline ISS7 score ≥13,−8.03
same,"Change from Baseline in ISS7 at Week 12, LS Mean",[9],−8.29
same,"Change from Baseline in ISS7 at Week 12, LS Mean Diff vs. placebo",[9],−4.06
same,"Change from Baseline in ISS7 at Week 12, Mean",[9],−8.52
same,"Change from Baseline in ISS7 at Week 12, LS Mean",[10],−7.94
same,"Change from Baseline in ISS7 at Week 12, LS Mean Diff vs. placebo",[10],−3.43
same,"Change from Baseline in ISS7 at Week 12, Mean",[10],−7.93
same,"Change from Baseline in ISS7 at Week 12, LS Mean",[11],−6.91
same,"Change from Baseline in ISS7 at Week 12, LS Mean Diff vs. placebo",[11],−0.88
same,"Change from Baseline in ISS7 at Week 12, Mean",[11],−6.57
same,"Change from Baseline in ISS7 at Week 12, LS Mean",[12],−7.17
same,"Change from Baseline in ISS7 at Week 12, LS Mean Diff vs. placebo",[12],−0.62
same,"Change from Baseline in ISS7 at Week 12, Mean",[12],−6.20
same,"Change from Baseline in ISS7 at Week 12, LS Mean",Baseline UAS7 score <28,−5.40
same,"Change from Baseline in ISS7 at Week 12, LS Mean Diff vs. placebo",Baseline UAS7 score <28,−2.22
same,"Change from Baseline in ISS7 at Week 12, Mean",Baseline UAS7 score <28,−6.29
same,"Change from Baseline in ISS7 at Week 12, LS Mean",Baseline UAS7 score ≥28,−8.64
same,"Change from Baseline in ISS7 at Week 12, LS Mean Diff vs. placebo",Baseline UAS7 score ≥28,−2.04
same,"Change from Baseline in ISS7 at Week 12, Mean",Baseline UAS7 score ≥28,−8.21
same,"Change from Baseline in ISS7 at Week 12, LS Mean",[13],−6.89
same,"Change from Baseline in ISS7 at Week 12, LS Mean Diff vs. placebo",[13],0.14
same,"Change from Baseline in ISS7 at Week 12, Mean",[13],−8.05
same,"Change from Baseline in ISS7 at Week 12, LS Mean",Duration of disease (years) <2,−8.54
same,"Change from Baseline in ISS7 at Week 12, LS Mean Diff vs. placebo",Duration of disease (years) <2,−4.89
same,"Change from Baseline in ISS7 at Week 12, Mean",Duration of disease (years) <2,−7.53
same,"Change from Baseline in ISS7 at Week 12, LS Mean",[14],5.36
same,"Change from Baseline in ISS7 at Week 12, LS Mean Diff vs. placebo",[14],9.04
same,"Change from Baseline in ISS7 at Week 12, Mean",[14],1.67
same,"Change from Baseline in ISS7 at Week 12, LS Mean",Ethnicity Hispanic,−5.19
same,"Change from Baseline in ISS7 at Week 12, LS Mean Diff vs. placebo",Ethnicity Hispanic,1.82
same,"Change from Baseline in ISS7 at Week 12, Mean",Ethnicity Hispanic,−4.42
same,"Change from Baseline in ISS7 at Week 12, LS Mean",Ethnicity Non-Hispanic,−8.43
same,"Change from Baseline in ISS7 at Week 12, LS Mean Diff vs. placebo",Ethnicity Non-Hispanic,−3.96
same,"Change from Baseline in ISS7 at Week 12, Mean",Ethnicity Non-Hispanic,−8.59
same,"Change from Baseline in ISS7 at Week 12, Mean",Gender Female,−6.99
same,"Change from Baseline in ISS7 at Week 12, Mean",Gender Male,−8.17
same,"Change from Baseline in ISS7 at Week 12, LS Mean",History of angioedema No,−7.93
same,"Change from Baseline in ISS7 at Week 12, LS Mean Diff vs. placebo",History of angioedema No,−2.59
same,"Change from Baseline in ISS7 at Week 12, LS Mean",History of angioedema Yes,−6.26
same,"Change from Baseline in ISS7 at Week 12, LS Mean Diff vs. placebo",History of angioedema Yes,−1.01
same,"Change from Baseline in ISS7 at Week 12, Mean",History of angioedema Yes,−4.04
same,"ISS7 at Week 12, Mean",ITT population,7.61
same,"ISS7 at Week 12, Median",ITT population,7.00
same,"ISS7 change from baseline at Week 12, Mean",ITT population,−8.21
same,"ISS7 change from baseline at Week 12, Median",ITT population,−8.00
same,"ISS7 change from baseline at Week 12, LS Mean","ITT population, ANCOVA",−8.06 points
same,"ISS7 change from baseline at Week 12, LS Mean Diff vs. placebo","ITT population, ANCOVA",−1.75
same,LS mean change in ISS7 from baseline (see Table 29),"ITT population, following one week of treatment",−5.23 points
same,"Change from Baseline in ISS7 at Week 12, LS Mean",Race All the Others,−6.99
